Like-named read-outs stand apart in the source and are kept apart here.
Tests used:
[1] = Pharmacokinetics of cilostazol and its active metabolites in rats; format: in vivo, rat; details: single oral cilostazol 300 mg/kg, non-fasting male SD rats, n = 3; parent and metabolites
Description: Pharmacokinetic variables (Cmax, AUC, Tmax and T1/2) were calculated from the plasma drug concentration-time curve. Cilostazol was orally administered to rats under non-fasting conditions at a single dose of 300 mg/kg to determine the concentration-time profile in serum (n = 3). Values are means (± SEM). […]

[2] = set-up: method as in PMID 10702882; details: human healthy male, single dose 100 mg of cilostazol, cited from earlier work
platelets = system: platelets; set-up: method as in earlier work; details: cited from earlier work
[3] = Electron spin resonance (ESR) radical scavenging; details: ESR experiments, data not shown
Description: In the photothrombotic cerebral infarction model, photoactivation of rose bengal by illumination with green light results in reactive oxygen intermediates (predominantly singlet oxygen and superoxide). […] Therefore, we concluded that the observed inhibitory effects of K-134 on photothrombosis in this model are relevant to its antiplatelet activity but not radical scavenging activity.

[4] = converted from µg/L, read-out: Cmax

AUC0-24h [1]	Cmax [1]	T1/2 [1]	Tmax [1]	SMILES	Cmax [2, 4]	AUC0–72 h ([2]; converted from µg/L·h)	AUC0–72 h [2]	Cmax [2]	antiplatelet activity, times less potent than cilostazol (platelets)	scavenging activities against singlet oxygen and superoxide anion radical [3]	antiplatelet activity, times more potent than cilostazol (platelets)
127.3 µM·h	9100 nM	6.1 h		O=C1CCc2cc(OCCCCc3nnnn3C3CCC(O)CC3)ccc2N1 (stereo not drawn) [OPC-13213]	170 nM	1.60 µM·h	~617 ng·h/mL	~64 ng/mL	3 times		
18.3 µM·h	1400 nM	6.8 h	3.2 h	O=c1ccc2cc(OCCCCc3nnnn3C3CCCCC3)ccc2[nH]1 [OPC-13015]	330 nM	6.59 µM·h	~2423 ng·h/mL	~122 ng/mL		did not show scavenging activities	3 times

Reference: paper PMC3479105, “K-134, a Phosphodiesterase 3 Inhibitor, Prevents Brain Damage by Inhibiting Thrombus Formation in a Rat Cerebral Infarction Model” (PLoS ONE, 2012)
